Here are results for 16 molecules from patent US20120094897A1, “NOVEL INHIBITORS OF HEPATITIS C VIRUS REPLICATION” (InterMune, Inc., priority 2010, published 2012).

Molecules are shown by their SMILES. Where only a bound is given, the exact number is not on record here.

Test [1] concerns the target T1, HCV NS3 protease (full-length NS3/NS4A-2 complex) (Hepatitis C virus genotype 1a, UniProt P27958).
T1 construct: Recombinant E. coli or Baculovirus full-length NS3 was diluted to 3.33 μM with assay buffer; host or cells: E. coli or baculovirus (insect cells)
In words: NS3 Inhibition Assay (NS3-NS4 protease assay, RETS1 substrate). In kind it is biochemical. The conditions noted are these: NS3/NS4A-2, RETS1 substrate, 10 minutes pre-incubation. As to the method:
NS3 Complex Formation with NS4A-2.
Recombinant E. coli or Baculovirus full-length NS3 was diluted to 3.33 μM with assay buffer and the material was transferred to an eppendorf tube and placed in a water bath in a 4° C. refrigerator. The appropriate amount of NS4A-2 diluted to 8.3 mM in assay buffer was added to an equal the volume of NS3 above (conversion factor—3.8 mg/272 μL assay buffer). The material was transferred to an eppendorf tube and placed in water bath in a 4° C. refrigerator.
After equilibration to 4° C., equal volumes of NS3 and NS4A-2 solutions were combined in an eppendorf tube, mixed gently with a manual pipettor, and incubated for 15 minutes in the 4° C. water bath. Final concentrations in the mixture are 1.67 μM NS3, 4.15 mM NS4A-2 (2485-fold molar excess NS4A-2).
After 15 minutes at 4° C., the NS3/NS4A-2 eppendorf tube was removed and placed in a room temperature water bath for 10 minutes. NS3/NS4A-2 was aliquoted at appropriate volumes and stored at −80° C. (E. coli NS3 run at 2 nM in assay, aliquot at 25 μL. BV NS3 run at 3 nM in assay, aliquot at 30 μL).
Step a. Sample compounds were dissolved to 10 mM in DMSO then diluted to 2.5 mM (1:4) in DMSO. Typically, compounds were added to an assay plate at 2.5 mM concentration, yielding upon dilution a starting concentration of 50 μM in the assay inhibition curve. Compounds were serial diluted in assay buffer to provide test solutions at lower concentrations.
Step 1. The E. coli. NS3/NS4A-2 was diluted to 4 nM NS3 (1:417.5 of 1.67 μM stock−18 μL 1.67 μM stock+7497 μL assay buffer). The BV NS3/NS4A-2 was diluted to 6 nM NS3 (1:278.3 of 1.67 μM stock−24 μL 1.67 μM stock+6655 μL assay buffer).
Step. 2. Using the manual multichannel pipettor, and being careful not to introduce bubbles into the plate, 50 μL assay buffer was added to wells A01-H01 of a black Costar 96-well polypropylene storage plate.
Step 3. Using the manual multichannel pipettor, and being careful not to introduce bubbles into the plate, 50 μL of diluted NS3/NS4A-2 from step 1 was added to wells A02-H12 of the plate in step 2.
Step 4. Using the manual multichannel pipettor, and being careful not to introduce bubbles into the plate, 25 μL of the wells in drug dilution plate in step a was transferred to corresponding wells in assay plate in step 3. The tips on the multichannel pipettor were changed for each row of compounds transferred.
Step 5. Using the manual multichannel pipettor, and being careful not to introduce bubbles into the plate, the contents of the wells from the assay plate in step 4 were mixed by aspirating and dispensing 35 μL of the 75 μL in each well five times. The tips on multichannel pipettor were changed for each row of wells mixed.
Step 6. The plate was covered with a polystyrene plate lid, and the plate from step 5 containing NS3 protease and sample compounds was pre-incubated 10 minutes at room temperature.
While the plate from step 6 is pre-incubating, the RETS1 substrate was diluted in a 15 mL polypropylene centrifuge tube. The RETS1 substrate was diluted to 8 μM (1:80.75 of 646 μM stock−65 μL 646 μM stock+5184 μL assay buffer).
After the plate in step 6 finished pre-incubating, and using the manual multichannel, 25 μL of substrate was added to all wells on the plate. The contents of the wells of the plate were quickly mixed, as in step 5, mixing 65 μL of the 100 μL in the wells.
The plate was read in kinetic mode on the Molecular Devices SpectraMax Gemini XS plate reader. Reader settings: Read time: 30 minutes, Interval: 36 seconds, Reads: 51, Excitation λ: 335 nm, Emission λ: 495 nm, cutoff: 475 nm, Automix: off, Calibrate: once, PMT: high, Reads/well: 6, Vmax pts: 21 or 28/51 depending on length of linearity of reaction
IC50s are determined using a four parameter curve fit equation, and converted to Ki's using the following Km's: • Full-length E. coli NS3-2.03 μM • Full-length BV NS3-1.74 μM • where Ki=IC50/(1+[S]/Km))

In test [2] the test system is HCV sub-genomic replicon (I377/NS3-3′) in HuH-7 hepatoma cells (GS4.3). In words: Quantitation by ELISA of NPTII in the HCV sub-genomic replicon, GS4.3. In kind it is cell-based. The following applies: Hepatitis C virus, GS4.3 replicon cells, 72 h incubation. As to the method: The HCV sub-genomic replicon (I377/NS3-3′, accession No. AJ242652), stably maintained in HuH-7 hepatoma cells, was created by Lohmann et al. Science 285: 110-113 (1999). The replicon-containing cell culture, designated GS4.3, was obtained from Dr. Christoph Seeger of the Institute for Cancer Research, Fox Chase Cancer Center, Philadelphia, Pa.
GS4.3 cells were maintained at 37° C., 5% CO2, in DMEM (Gibco 11965-092) supplemented with L-glutamine 200 mM (100×) (Gibco25030-081), non-essential amino acids (NEAA)(Biowhittaker 13-114E), heat-inactivated (HI) Fetal Bovine Serum(FBS)(Hyclone SH3007.03) and […] geneticin (G418)(Gibco 10131-035). Cells were sub-divided 1:3 or 4 every 2-3 days.
24 h prior to the assay, GS4.3 cells were collected, counted, and plated in 96-well plates (Costar 3585) at 7500 cells/well in 100 μL standard maintenance medium (above) and incubated in the conditions above. To initiate the assay, culture medium was removed, cells were washed once with PBS (Gibco 10010-023) and 90 μl Assay Medium (DMEM, L-glutamine, NEAA, 10% HI FBS, no G418) was added. Inhibitors were made as a 10× stock in Assay Medium, (3-fold dilutions from 10 μM to […] final concentration, final DMSO concentration 1%), 10 μL were added to duplicate wells, plates were rocked to mix, and incubated as above for 72 h.
An NPTII Elisa kit was obtained from AGDIA, Inc. (Compound direct ELISA test system for Neomycin Phosphotransferase II, PSP 73000/4800). Manufacturer's instructions were followed, with some modifications. 10×PEB-1 lysis buffer was made up to include 500 μM PMSF (Sigma P7626, 50 mM stock in isopropanol). After 72 h incubation, cells were washed once with PBS and 150 μL PEB-1 with PMSF was added per well. Plates were agitated vigorously for 15 minutes, room temperature, and then frozen at −70° C. Plates were thawed, lysates were mixed thoroughly, and 100 μL were applied to an NPTII Elisa plate. A standard curve was made. Lysate from DMSO-treated control cells was pooled, serially diluted with PEB-1 with PMSF, and applied to duplicate wells of the ELISA plate, in a range of initial lysate amount of 150 μL. In addition, 100 μL buffer alone was applied in duplicate as a blank. Plates were sealed and gently agitated at room temperature for 2 h. Following capture incubation, the plates were washed 5×300 μL with PBS-T (0.5% Tween-20, PBS-T was supplied in the ELISA kit). For detection, a 1× dilution of enzyme conjugate diluent MRS-2 (5×) was made in PBS-T, into which 1:100 dilutions of enzyme conjugates A and B were added, as per instructions. Plates were resealed, and incubated with agitation, covered, room temperature, for 2 h. The washing was then repeated and 100 μL of room temperature TMB substrate was added. After approximately 30 minutes incubation (room temperature, agitation, covered), the reaction was stopped with 50 μL 3M sulfuric acid. Plates were read at 450 nm on a Molecular Devices Versamax plate reader.
Inhibitor effect was expressed as a percentage of DMSO-treated control signal, and inhibition curves were calculated using a 4-parameter equation: y=A+4B−A)/(1+((C/x)̂D))), where C is half-maximal activity or EC50.

T1 sequence (P27958 1027-1657, one chain of several): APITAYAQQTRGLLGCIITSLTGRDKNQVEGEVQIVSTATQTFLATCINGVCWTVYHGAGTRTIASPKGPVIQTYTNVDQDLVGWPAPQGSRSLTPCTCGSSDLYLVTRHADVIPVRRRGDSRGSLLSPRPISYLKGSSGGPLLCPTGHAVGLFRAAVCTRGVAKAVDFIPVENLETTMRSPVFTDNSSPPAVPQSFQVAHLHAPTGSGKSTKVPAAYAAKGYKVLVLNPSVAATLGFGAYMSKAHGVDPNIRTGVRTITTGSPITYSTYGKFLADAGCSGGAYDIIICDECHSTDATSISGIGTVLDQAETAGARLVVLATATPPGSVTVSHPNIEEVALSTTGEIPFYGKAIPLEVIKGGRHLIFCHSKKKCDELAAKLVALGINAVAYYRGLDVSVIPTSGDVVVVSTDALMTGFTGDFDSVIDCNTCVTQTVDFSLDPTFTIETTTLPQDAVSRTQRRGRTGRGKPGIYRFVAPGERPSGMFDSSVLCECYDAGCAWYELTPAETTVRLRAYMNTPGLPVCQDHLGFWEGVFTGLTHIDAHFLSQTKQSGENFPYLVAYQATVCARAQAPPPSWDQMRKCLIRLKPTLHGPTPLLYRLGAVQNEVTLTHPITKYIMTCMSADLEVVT

For the molecule `CC[C@@H]1C[C@@]12NC(=O)[C@@H]1C[C@H](CN1C(=O)[C@@H](NC(=O)OC(C)(C)C)C(C)(C)C)Oc1nc3c(cccc3n1C(C)C)C(=O)NCC=CCCCC1(CC1)S(=O)(=O)NC2=O` [Compound 9], in test [1], the concentration for half-maximal inhibition (IC50) (usually the midpoint of a concentration-inhibition curve) is at most 10 nM. Besides, in test [2], the EC50 – broadly, the concentration at which the effect is half-maximal – lay in the range of 10 to 100 nM.
The molecule `CC[C@@H]1C[C@@]12NC(=O)[C@@H]1C[C@H](CN1C(=O)[C@@H](NC(=O)OC(C)(C)C)C(C)(C)C)Oc1nc3c(cccc3n1C(C)C)C(=O)NCCC=CCCC1(CC1)S(=O)(=O)NC2=O` [Compound 10] returned an IC50 in test [1] of at most 10 nM. The EC50 in test [2] was at least 100 nM.
The corresponding values for `CC[C@@H]1C[C@@]12NC(=O)[C@@H]1C[C@H](CN1C(=O)[C@@H](NC(=O)OC(C)(C)C)C(C)(C)C)Oc1nc3c(cccc3n1C(C)C)C(=O)NCCCCCCC1(CC1)S(=O)(=O)NC2=O` [Compound 11] are at most 10 nM and at least 100 nM.
The corresponding values for `CC[C@@H]1C[C@@]12NC(=O)[C@@H]1C[C@H](CN1C(=O)[C@@H](NC(=O)OC(C)(C)C)C(C)(C)C)Oc1nc3c(cccc3n1C(C)C)C(=O)NCCC=CCCCC1(CC1)S(=O)(=O)NC2=O` [Compound 12] are at most 10 nM and 10 to 100 nM.
The corresponding values for `CC[C@@H]1C[C@@]12NC(=O)[C@@H]1C[C@H](CN1C(=O)[C@@H](NC(=O)OC(C)(C)C)C(C)(C)C)Oc1nc3c(cccc3n1C(C)C)C1=NC(C(C)C)=C(CCC=CCCC3(CC3)S(=O)(=O)NC2=O)S1` [Compound 13] are at most 10 nM and at least 100 nM.
In test [1], `CC[C@@H]1C[C@@]12NC(=O)[C@@H]1C[C@H](CN1C(=O)[C@@H](NC(=O)OC(C)(C)C)C(C)(C)C)Oc1nc3c(cccc3n1C(C)C)C(=O)NCCCCCCCC1(CC1)S(=O)(=O)NC2=O` [Compound 14] registered a concentration for half-maximal inhibition (IC50) of at most 10 nM. The same molecule returned an EC50 in test [2] of at most 10 nM.
Molecule `CC[C@@H]1C[C@@]12NC(=O)[C@@H]1C[C@H](CN1C(=O)[C@@H](NC(=O)OC(C)(C)C)C(C)(C)C)Oc1nc3c(cccc3n1C(C)C)C1=NC(C(C)C)=C(CCCCCCC3(CC3)S(=O)(=O)NC2=O)S1` [Compound 15] registered an IC50 in test [1] of at most 10 nM. For the same molecule, in test [2], the EC50 is at least 100 nM.
The corresponding values for `CC[C@@H]1C[C@@]12NC(=O)[C@@H]1C[C@H](CN1C(=O)[C@@H](NC(=O)OC(C)(C)C)C(C)(C)C)Oc1nc3c(cccc3n1C(C)C)C1=NC(C(C)C)=C(CCC/C=C/CCCC3(CC3)S(=O)(=O)NC2=O)S1` [Compound 101] are at most 10 nM and at least 100 nM.
In the same order, the values of `CC[C@@H]1C[C@@]12NC(=O)[C@@H]1C[C@H](CN1C(=O)[C@@H](NC(=O)OC(C)(C)C)C(C)(C)C)Oc1nc3c(cccc3n1C(C)C)C1=NC(C(C)C)=C(CCCCCCCCC3(CC3)S(=O)(=O)NC2=O)S1` [Compound 102] are 10 to 100 nM and at least 100 nM.
In the same order, the values of `CC[C@@H]1C[C@@]12NC(=O)[C@@H]1C[C@H](CN1C(=O)[C@@H](N)C(C)(C)C)Oc1nc3c(cccc3n1C(C)C)C1=NC(C(C)C)=C(CCC/C=C/CCCC3(CC3)S(=O)(=O)NC2=O)S1` [Compound 103] are 10 to 100 nM and at least 100 nM.
In test [1], `CC[C@@H]1C[C@@]12NC(=O)[C@@H]1C[C@H](CN1C(=O)[C@@H](N)C(C)(C)C)Oc1nc3c(cccc3n1C(C)C)C1=NC(C(C)C)=C(CCCCCCCCC3(CC3)S(=O)(=O)NC2=O)S1` [Compound 104] came in with an IC50 of 10 to 100 nM. Moreover, in test [2], the EC50 is at least 100 nM.
In the same order, the values of `CC[C@@H]1C[C@@]12NC(=O)[C@@H]1C[C@H](CN1C(=O)[C@@H](NC(=O)OC(C)(C)C)C(C)(C)C)Oc1nc3c(cccc3n1C(C)C)C1=NC(C(C)C)=C(CC/C=C/CCCCS(=O)(=O)NC2=O)S1` [Compound 105] are at most 10 nM and at least 100 nM.
The corresponding values for `CC[C@@H]1C[C@@]12NC(=O)[C@@H]1C[C@H](CN1C(=O)[C@@H](NC(=O)OC(C)(C)C)C(C)(C)C)Oc1nc3c(cccc3n1C(C)C)C1=NC(C(C)C)=C(CC/C=C\CCCCS(=O)(=O)NC2=O)S1` [Compound 106] are 10 to 100 nM and at least 100 nM.
In the same order, the values of `CC[C@@H]1C[C@@]12NC(=O)[C@@H]1C[C@H](CN1C(=O)[C@@H](NC(=O)OC(C)(C)C)C(C)(C)C)Oc1nc3c(cccc3n1C(C)C)C1=NC(C(C)C)=C(CCCCCCCCS(=O)(=O)NC2=O)S1` [Compound 107] are 10 to 100 nM and at least 100 nM.
`CC[C@@H]1C[C@@]12NC(=O)[C@@H]1C[C@H](CN1C(=O)[C@@H](N)C(C)(C)C)Oc1nc3c(cccc3n1C(C)C)C1=NC(C(C)C)=C(CC/C=C\CCCCS(=O)(=O)NC2=O)S1` [Compound 108] came in with an IC50 in test [1] of at least 100 nM. This molecule registered an EC50 in test [2] of at least 100 nM.
Turning to `CC[C@@H]1C[C@@]12NC(=O)[C@@H]1C[C@H](CN1C(=O)[C@@H](N)C(C)(C)C)Oc1nc3c(cccc3n1C(C)C)C1=NC(C(C)C)=C(CC/C=C/CCCCS(=O)(=O)NC2=O)S1` [Compound 109], in test [1], the IC50 is at least 100 nM. This molecule also showed an EC50 in test [2] of at least 100 nM.
